Test results as given in patent publication US8334315B2, “Substituted aromatic carboxamide and urea derivatives as vanilloid receptor ligands” (Gruenenthal GmbH, priority 2009, dated 2012).

How the values were obtained:
[1] = target: T1, rat-species vanilloid receptor 1 (VR1/TRPV1) (Rattus norvegicus, UniProt O35433); test: Functional testing on the vanilloid receptor 1, FLIPR Ca2+ influx in rat DRG cells, capsaicin; format: cell-based; design: key to Ki (rat) [nM] Cap: agonist / partial agonist / no effect: AG=agonist; pAG=partial agonist; NE=no effect; conditions: for Ki: capsaicin (Cap), includes values given in brackets after pAG
T1 construct: endogenous in cells; host or cells: primary cells dissociated from rat dorsal root ganglia (DRG), cultured 2-3 days with NGF
Text: I. Functional Testing Carried Out on the Vanilloid Receptor 1 (VRI/TRPV1 Receptor)
(§1) The agonistic or antagonistic effect of the substances to be tested on the rat-species vanilloid receptor 1 (VR1/TRPV1) can be determined using the following assay. In this assay, the influx of Ca^2+ through the receptor channel is quantified with the aid of a Ca^2+-sensitive dye (type Fluo-4, Molecular Probes Europe BV, Leiden, the Netherlands) in a fluorescent imaging plate reader (FLIPR, Molecular Devices, Sunnyvale, USA).
Complete medium: 50 ml HAMS F12 nutrient mixture (Gibco Invitrogen GmbH, Karlsruhe, Germany) with
10% by volume of FCS (foetal calf serum, Gibco Invitrogen GmbH, Karlsruhe, Germany, heat-inactivated);
2 mM L-glutamine (Sigma, Munich, Germany);
1% by weight of AA solution (antibiotic/antimyotic solution, PAA, Pasching, Austria) and 25 ng/ml NGF medium (2.5 S, Gibco Invitrogen GmbH, Karlsruhe, Germany)
Cell culture plate: Poly-D-lysine-coated, black 96-well plates having a clear base (96-well black/clear plate, BD Biosciences, Heidelberg, Germany) are additionally coated with laminin (Gibco Invitrogen GmbH, Karlsruhe, Germany), the laminin being diluted with PBS (Ca—Mg-free PBS, Gibco Invitrogen GmbH, Karlsruhe, Germany) to a concentration of 100 μg/ml. Aliquots having a laminin concentration of 100 μg/ml are removed and stored at −20° C. The aliquots are diluted with PBS in a ratio of 1:10 to 10 μg/ml of laminin and respectively 50 μL of the solution are pipetted into a recess in the cell culture plate. The cell culture plates are incubated for at least two hours at 37° C., the excess solution is removed by suction and the recesses are each washed twice with PBS. The coated cell culture plates are stored with excess PBS which is not removed until just before the feeding of the cells.
Preparation of the Cells:
The vertebral column is removed from decapitated rats and placed immediately into cold HBSS buffer (Hank's buffered saline solution, Gibco Invitrogen GmbH, Karlsruhe, Germany), i.e. buffer located in an ice bath, mixed with 1% by volume (per cent by volume) of an AA solution (antibiotic/antimyotic solution, PAA, Pasching, Austria). The vertebral column is cut longitudinally and removed together with fasciae from the vertebral canal. Subsequently, the dorsal root ganglia (DRG) are removed and again stored in cold HBSS buffer mixed with 1% by volume of an AA solution. The DRG, from which all blood remnants and spinal nerves have been removed, are transferred in each case to 500 μL of cold type 2 collagenase (PAA, Pasching, Austria) and incubated for 35 minutes at 37° C. After the addition of 2.5% by volume of trypsin (PAA, Pasching, Austria), incubation is continued for 10 minutes at 37° C. After complete incubation, the enzyme solution is carefully pipetted off and 500 μL of complete medium are added to each of the remaining DRG. The DRG are respectively suspended several times, drawn through cannulae No. 1, No. 12 and No. 16 using a syringe and transferred to a 50 ml Falcon tube which is filled up to 15 ml with complete medium. The contents of each Falcon tube are respectively filtered through a 70 μm Falcon filter element and centrifuged for 10 minutes at 1,200 rpm and RT. The resulting pellet is respectively taken up in 250 μL of complete medium and the cell count is determined.
The number of cells in the suspension is set to 3×10^5 per ml and 150 μL of this suspension are in each case introduced into a recess in the cell culture plates coated as described hereinbefore. In the incubator the plates are left for two to three days at 37° C., 5% by volume of CO2 and 95% relative humidity. […]

hVR1 [2] = target: T2, hVR1 (Homo sapiens, UniProt Q8NER1); test: Functional test on VR1, FLIPR Ca2+ influx in transfected CHO K1 cells, capsaicin; format: cell-based, human being; design: key to Ki (human being) [nM] Cap: agonist / partial agonist / no effect: AG=agonist; pAG=partial agonist; NE=no effect; conditions: for Ki: capsaicin (Cap), includes values given in brackets after pAG, read-out: Ki (human being) [nM] Cap
T2 construct: expressed in transfected cells; host or cells: CHO K1 cells (ECACC), stably transfected
Text: In the process, the Ca^2+ influx is quantified in the FLIPR assay with the aid of a Ca^2+-sensitive dye (type Fluo-4, Molecular Probes Europe BV, Leiden, the Netherlands) in a fluorescent imaging plate reader (FLIPR, Molecular Devices, Sunnyvale, USA), as described hereinafter.
II. Functional Tests Carried Out on the Vanilloid Receptor (VR1)
as §1, with “the” for “the rat-species”, “(VR1)” for “(VR1/TRPV1)”, “can also” for “can”, “the” for “the receptor”
Chinese hamster ovary cells (CHO K1 cells, European Collection of Cell Cultures (ECACC) United Kingdom) are stably transfected with the VR1 gene. For functional testing, these cells are plated out on poly-D-lysine-coated black 96-well plates having a clear base (BD Biosciences, Heidelberg, Germany) at a density of 25,000 cells/well. The cells are incubated overnight at 37° C. and 5% CO2 in a culture medium (Ham's F12 nutrient mixture, 10% by volume of FCS (foetal calf serum), 18 μg/ml of L-proline). The next day the cells are incubated with Fluo-4 (Fluo-4 2 μM, 0.01% by volume of Pluronic F127, Molecular Probes in HBSS (Hank's buffered saline solution), Gibco Invitrogen GmbH, Karlsruhe, Germany) for 30 minutes at 37° C. Subsequently, the plates are washed three times with HBSS buffer and after further incubation for 15 minutes at RT used for Ca^2+ measurement in a FLIPR assay. The Ca^2+-dependent fluorescence is measured before and after the addition of the substances to be tested (λex wavelength=488 nm, λem=540 nm). Quantification is carried out by measuring the highest fluorescence intensity (FC, fluorescence counts) over time.
The FLIPR protocol consists of 2 substance additions. First the compounds to be tested (10 μM) are pipetted onto the cells and the Ca^2+ influx is compared with the control (capsaicin 10 μM) (% activation based on the Ca^2+ signal after the addition of 10 μM of capsaicin). After 5 minutes' incubation, 100 nM of capsaicin are applied and the Ca^2+ influx is also determined.
Desensitising agonists and antagonists led to suppression of the Ca^2+ influx. The % inhibition is calculated compared to the maximum achievable inhibition with 10 μM of capsaicin.
Starting from the percentage displacement caused by different concentrations of the compounds to be tested of general formula I, IC50 inhibitory concentrations which cause a 50-per cent displacement of capsaicin were calculated. Ki values for the test substances were obtained by conversion by means of the Cheng-Prusoff equation (Cheng, Prusoff; Biochem. Pharmacol. 22, 3099-3108, 1973).
The affinity of the compounds according to the invention for the vanilloid receptor 1 (VR1/TRPV1 receptor) was determined as described hereinbefore (pharmacological methods I and II respectively).

hVR1 [3] = target: T2, hVR1; test: Functional test on hVR1 after pH stimulus; format: cell-based, human being; design: key to IC50 (human being) hVR1, pH: agonist / partial agonist / no effect: AG=agonist; pAG=partial agonist; NE=no effect; conditions: for IC50: includes value printed in brackets after pAG, read-out: IC50 (human being) hVR1 [nM], pH; for inhibition at 10 µM: read-out: IC50 (human being) hVR1, pH: inhibition (as a percentage)
hVR1 [4] = target: T2, hVR1; test: Functional test on human VR1, 45° C. stimulus; format: cell-based, human being; design: key to IC50 (human being), 45° C.: agonist / partial agonist / no effect: AG=agonist; pAG=partial agonist; NE=no effect; conditions: for IC50: read-out: IC50 (human being) [nM], 45° C.

T2 sequence (Q8NER1 whole entry): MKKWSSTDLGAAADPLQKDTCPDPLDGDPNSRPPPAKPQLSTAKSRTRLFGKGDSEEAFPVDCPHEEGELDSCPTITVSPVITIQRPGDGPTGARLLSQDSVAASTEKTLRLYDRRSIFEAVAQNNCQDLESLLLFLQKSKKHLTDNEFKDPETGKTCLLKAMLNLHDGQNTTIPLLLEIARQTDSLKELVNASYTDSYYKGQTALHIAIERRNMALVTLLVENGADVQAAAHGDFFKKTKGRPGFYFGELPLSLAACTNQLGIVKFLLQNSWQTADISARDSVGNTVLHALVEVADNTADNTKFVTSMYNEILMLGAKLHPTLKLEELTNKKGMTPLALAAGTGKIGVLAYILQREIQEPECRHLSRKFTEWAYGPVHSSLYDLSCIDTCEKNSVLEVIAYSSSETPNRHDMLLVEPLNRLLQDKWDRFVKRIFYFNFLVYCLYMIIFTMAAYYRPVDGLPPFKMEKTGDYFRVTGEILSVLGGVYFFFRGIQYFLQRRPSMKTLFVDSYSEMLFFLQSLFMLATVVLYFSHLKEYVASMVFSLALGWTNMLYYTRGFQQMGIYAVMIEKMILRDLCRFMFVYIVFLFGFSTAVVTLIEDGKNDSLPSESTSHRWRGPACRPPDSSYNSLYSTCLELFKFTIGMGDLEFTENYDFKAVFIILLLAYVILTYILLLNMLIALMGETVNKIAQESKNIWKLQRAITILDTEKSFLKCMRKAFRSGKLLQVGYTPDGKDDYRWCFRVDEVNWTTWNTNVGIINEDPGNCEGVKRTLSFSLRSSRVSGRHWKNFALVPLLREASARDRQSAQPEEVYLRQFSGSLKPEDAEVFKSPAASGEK
T1 sequence (O35433 whole entry): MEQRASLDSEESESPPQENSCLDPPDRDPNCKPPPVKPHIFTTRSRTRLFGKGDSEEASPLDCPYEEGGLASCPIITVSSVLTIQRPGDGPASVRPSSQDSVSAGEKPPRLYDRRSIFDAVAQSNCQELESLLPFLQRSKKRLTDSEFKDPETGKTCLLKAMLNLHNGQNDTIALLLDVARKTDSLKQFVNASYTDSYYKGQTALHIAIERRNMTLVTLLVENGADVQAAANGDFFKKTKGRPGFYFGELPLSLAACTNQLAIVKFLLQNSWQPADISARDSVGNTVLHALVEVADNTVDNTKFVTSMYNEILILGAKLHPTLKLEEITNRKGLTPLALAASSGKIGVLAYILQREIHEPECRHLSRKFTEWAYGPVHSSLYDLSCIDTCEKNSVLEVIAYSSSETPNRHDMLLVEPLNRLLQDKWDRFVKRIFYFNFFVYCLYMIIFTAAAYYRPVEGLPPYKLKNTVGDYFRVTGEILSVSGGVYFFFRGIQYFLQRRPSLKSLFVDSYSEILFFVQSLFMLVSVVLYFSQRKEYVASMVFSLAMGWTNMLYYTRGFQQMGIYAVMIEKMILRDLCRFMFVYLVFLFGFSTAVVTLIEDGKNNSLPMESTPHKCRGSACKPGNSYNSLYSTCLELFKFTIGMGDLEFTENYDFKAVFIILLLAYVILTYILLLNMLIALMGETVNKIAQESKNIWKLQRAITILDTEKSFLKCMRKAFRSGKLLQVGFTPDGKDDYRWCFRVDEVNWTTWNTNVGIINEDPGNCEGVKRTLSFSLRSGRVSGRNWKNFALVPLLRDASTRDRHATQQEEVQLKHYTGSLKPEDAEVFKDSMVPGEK

CC(C(=O)NCc1cc(C(C)(C)C)nn1-c1cccc(Cl)c1)c1cccc2c1OCCO2 (stereo not drawn) [Example 14, N-((3-tert-butyl-1-(3-chlorophenyl)-1H-pyrazol-5-yl)methyl)-2-(2,3-dihydrobenzo[b][1,4]dioxin-5-yl)propanamide]
Ki (rat) [nM] Cap: agonist / partial agonist / no effect [1]: AG

CC(C(=O)NCc1cc(C(C)(C)C)nn1-c1cccc(Cl)c1)c1ccc2c(c1)OCCCO2 (stereo not drawn) [Example 15, N-((3-tert-butyl-1-(3-chlorophenyl)-1H-pyrazol-5-yl)methyl)-2-(3,4-dihydro-2H-benzo[b][1,4]dioxepin-7-yl)propanamide]
Ki (rat) [nM] Cap: agonist / partial agonist / no effect [1]: AG | Ki (human being) [nM] Cap: agonist / partial agonist / no effect (hVR1 [2]): pAG | Ki (hVR1 [2]): 25 nM | IC50 (human being) hVR1, pH: agonist / partial agonist / no effect (hVR1 [3]): pAG | IC50 (hVR1 [3]): 412 nM | IC50 (human being), 45° C.: agonist / partial agonist / no effect (hVR1 [4]): pAG

CC(C(=O)NCc1cc(C(F)(F)F)nn1-c1cccc(Cl)c1)c1ccc2[nH]ccc2c1 (stereo not drawn) [Example 31, N-((1-(3-chlorophenyl)-3-(trifluoromethyl)-1H-pyrazol-5-yl)methyl)-2-(1H-indol-5-yl)propanamide]
Ki (human being) [nM] Cap: agonist / partial agonist / no effect (hVR1 [2]): pAG | Ki (hVR1 [2]): 2.4 nM | IC50 (human being) hVR1, pH: agonist / partial agonist / no effect (hVR1 [3]): pAG

CC(C(=O)NCc1cc(C(F)(F)F)nn1-c1cccc(Cl)c1)c1ccc2[nH]ncc2c1 (stereo not drawn) [Example 35, N-((1-(3-chlorophenyl)-3-(trifluoromethyl)-1H-pyrazol-5-yl)methyl)-2-(1H-indazol-5-yl)propanamide]
Ki (human being) [nM] Cap: agonist / partial agonist / no effect (hVR1 [2]): pAG | Ki (hVR1 [2]): 0.3 nM | IC50 (human being) hVR1, pH: agonist / partial agonist / no effect (hVR1 [3]): pAG | IC50 (human being), 45° C.: agonist / partial agonist / no effect (hVR1 [4]): pAG

CC(C(=O)NCc1cc(C(F)(F)F)nn1-c1cccc(Cl)c1)c1cccc2ccc(O)cc12 (stereo not drawn) [Example 58, N-((1-(3-chlorophenyl)-3-(trifluoromethyl)-1H-pyrazol-5-yl)methyl)-2-(7-hydroxynaphthalen-1-yl)propanamide]
Ki [1]: 7.6 nM | Ki (hVR1 [2]): 0.7 nM | IC50 (hVR1 [3]): 4930 nM | inhibition at 2.5 µM (hVR1 [4]; @ 2.5 μM, read-out: IC50 (human being), 45° C.: inhibition (as a percentage)): 41%

CC(C(=O)NCc1cc(C(C)(C)C)nn1-c1cccc(Cl)c1)c1cccc2cnccc12 (stereo not drawn) [Example 63, N-((3-tert-butyl-1-(3-chlorophenyl)-1H-pyrazol-5-yl)methyl)-2-(isoquinolin-5-yl)propanamide]
Ki (rat) [nM] Cap: agonist / partial agonist / no effect [1]: pAG | Ki [1]: 0.5 nM | Ki (hVR1 [2]): 0.2 nM | inhibition at 10 µM (hVR1 [3]): 33% | inhibition at 0.6 µM (hVR1 [4]; @ 0.6 μM, read-out: IC50 (human being), 45° C.: inhibition (as a percentage)): 9%

Cc1cc2c(C(C)C(=O)NCc3cc(C(F)(F)F)nn3-c3cccc(Cl)c3)cccc2cn1 (stereo not drawn) [Example 65, N-((1-(3-chlorophenyl)-3-(trifluoromethyl)-1H-pyrazol-5-yl)methyl)-2-(3-methylisoquinolin-5-yl)propanamide]
Ki (hVR1 [2]): 0.3 nM | inhibition at 10 µM (hVR1 [3]): 23% | IC50 (hVR1 [4]): 780 nM

CC(C(=O)NCc1cc(C(C)(C)C)nn1-c1cccc(Cl)c1)c1cccc2ncccc12 (stereo not drawn) [Example 70, N-((3-tert-butyl-1-(3-chlorophenyl)-1H-pyrazol-5-yl)methyl)-2-(quinolin-5-yl)propanamide]
Ki (human being) [nM] Cap: agonist / partial agonist / no effect (hVR1 [2]): AG | IC50 (human being) hVR1, pH: agonist / partial agonist / no effect (hVR1 [3]): AG | IC50 (human being), 45° C.: agonist / partial agonist / no effect (hVR1 [4]): AG

O=C(NCc1cc(C(F)(F)F)nn1-c1cccc(Cl)c1)Nc1ccc2c(c1)OCCO2 [Example 84, 1-((1-(3-chlorophenyl)-3-(trifluoromethyl)-1H-pyrazol-5-yl)methyl)-3-(2,3-dihydrobenzo[b][1,4]dioxin-6-yl)urea]
Ki [1]: 181 nM | Ki (hVR1 [2]): 51.6 nM | IC50 (hVR1 [4]): 235 nM

O=C(NCc1cc(C(F)(F)F)nn1-c1cccc(Cl)c1)Nc1ccc2ncsc2c1 [Example 96, 1-(benzo[d]thiazol-6-yl)-3-((1-(3-chlorophenyl)-3-(trifluoromethyl)-1H-pyrazol-5-yl)methyl)urea]
Ki (human being) [nM] Cap: agonist / partial agonist / no effect (hVR1 [2]): pAG | Ki (hVR1 [2]): 7.3 nM | IC50 (human being) hVR1, pH: agonist / partial agonist / no effect (hVR1 [3]): pAG

CC(C(=O)NCc1cc(C(F)(F)F)nn1-c1cccc(Cl)c1)c1cccc2cnc(Cl)cc12 (stereo not drawn) [Example 213, 2-(3-chloroisoquinolin-5-yl)-N-((1-(3-chlorophenyl)-3-(trifluoromethyl)-1H-pyrazol-5-yl)methyl)propanamide]
Ki (hVR1 [2]): 0.07 nM | IC50 (hVR1 [4]): 264 nM

CC(C)(C)c1cc(CNC(=O)Nc2cc(F)cc3[nH]ncc23)n(-c2ccccn2)n1 [Example 216, 1-((3-tert-butyl-1-(pyridin-2-yl)-1H-pyrazol-5-yl)methyl)-3-(6-fluoro-1H-indazol-4-yl)urea]
Ki (hVR1 [2]): 54 nM | IC50 (hVR1 [4]): 2120 nM
